# Earlier results, collected in PubChem BioAssay AID1259409 (Chemical Carcinogenesis Research Information System (CCRIS), 2018).
# Tested on: rodent chemically induced tumor inhibition, incidence and multiplicity
# Experiment: CCRIS tumor inhibitor studies
# Details: Dose [Inhibitor]: 0, Species: RAT
smiles,measurement,setting,value
NCCS,"tumour outcome (control, treated, inhibition, significance)","Carcinogen: 7,12-DIMETHYLBENZ[A]ANTHRACENE, 57-97-6, 0.015 MOL/KG DIET BEGINNING 2 WK PRIOR TO CARCINOGEN AND CONTINUED FOR STUDY DURATION (STUDY DURATION: 25 WK), Route [Inhibitor]: ORAL, Strain/Sex: CD-1/FEMALE, Target Tissue: Type of Lesion: MAMMARY GLAND: ADENOCARCINOMA, Dose [Carcinogen]: 10 MG ONCE, Promoter: NONE USED","18/25 (72%), 17/25 (68%), 5%, not significant"
same,"tumour outcome (control, treated, inhibition, significance)","Carcinogen: 7,12-DIMETHYLBENZ[A]ANTHRACENE, 57-97-6, 0.03 MOL/KG DIET BEGINNING 2 WK PRIOR TO CARCINOGEN AND CONTINUED FOR STUDY DURATION (STUDY DURATION: 25 WK), Route [Inhibitor]: ORAL, Strain/Sex: CD-1/FEMALE, Target Tissue: Type of Lesion: MAMMARY GLAND: ADENOCARCINOMA, Dose [Carcinogen]: 10 MG ONCE, Promoter: NONE USED","18/25 (72%), 12/25 (48%), 33%, not significant"
same,"tumour outcome (control, treated, inhibition, significance)","Carcinogen: 7,12-DIMETHYLBENZ[A]ANTHRACENE, 57-97-6, 0.06 MOL/KG DIET BEGINNING 2 WK PRIOR TO CARCINOGEN AND CONTINUED FOR STUDY DURATION (STUDY DURATION: 25 WK), Route [Inhibitor]: ORAL, Strain/Sex: CD-1/FEMALE, Target Tissue: Type of Lesion: MAMMARY GLAND: ADENOCARCINOMA, Dose [Carcinogen]: 10 MG ONCE, Promoter: NONE USED","18/25 (72%), 13/25 (52%), 28%, not significant"
same,"tumour outcome (control, treated, inhibition, significance)","Carcinogen: AZOXYMETHANE, 25843-45-2, 25 MG/KG IN 0.9% SODIUM CHLORIDE 1/2 D FOR 40 WK ADMINISTERED CONCURRENTLY WITH CARCINOGEN (STUDY DURATION: 40 WK), Route [Inhibitor]: SUBCUTANEOUS, Strain/Sex: WISTAR, Target Tissue: Type of Lesion: COLON: TUMOR, Dose [Carcinogen]: 7.4 MG/KG IN 0.9% SODIUM CHLORIDE SOLUTION 1/WK FOR 10 WK, Promoter: NONE USED","17/18 (94%), 7/17 (41%), 56%, p<0.01"
same,"tumour outcome (control, treated, inhibition, significance)","Carcinogen: N-METHYL-N'-NITRO-N-NITROSOGUANIDINE, 70-25-7, 5 MG/KG 1/2 D ADMINISTERED SIMULTANEOUSLY WITH 30 MG/KG SULPIRIDE BEGINNING 1 WK POST CARCINOGEN TREATMENT AND CONTIN, Route [Inhibitor]: SUBCUTANEOUS, Strain/Sex: WISTAR/MALE, Target Tissue: Type of Lesion: STOMACH: ADENOCARCINOMA, Dose [Carcinogen]: 50 UG/ML IN DRINKING WATER FOR 25 WK, Promoter: NONE USED","13/18 (72%), 5/20 (25%), 65%, not calculated"
same,"tumour outcome (control, treated, inhibition, significance)","Carcinogen: N-METHYL-N'-NITRO-N-NITROSOGUANIDINE, 70-25-7, 5 MG/KG 1/2 D BEGINNING 1 WK POST CARCINOGEN TREATMENT AND CONTINUING FOR DURATION OF STUDY (STUDY DURATION: 52 WK), Route [Inhibitor]: SUBCUTANEOUS, Strain/Sex: WISTAR/MALE, Target Tissue: Type of Lesion: STOMACH: ADENOCARCINOMA, Dose [Carcinogen]: 50 UG/ML IN DRINKING WATER FOR 25 WK, Promoter: NONE USED","13/18 (72%), 13/20 (65%), 10%, not significant"
same,"tumour outcome (control, treated, inhibition, significance)","Carcinogen: N-METHYL-N'-NITRO-N-NITROSOGUANIDINE, 70-25-7, 5 MG/KG IN 1 ML/KG OLIVE OIL 1/2 D FOR STUDY DURATION BEGINNING POST CARCINOGEN TREATMENT (STUDY DURATION: 52 WK), Route [Inhibitor]: SUBCUTANEOUS, Strain/Sex: WISTAR/MALE, Target Tissue: Type of Lesion: GLANDULAR STOMACH: ADENOCARCINOMA, Dose [Carcinogen]: 50 UG/ML DRINKING WATER FOR 25 WK","13/18 (72%), 13/20 (65%), 10%, not significant"
same,"tumour outcome (control, treated, inhibition, significance)","Carcinogen: N-METHYL-N'-NITRO-N-NITROSOGUANIDINE, 70-25-7, 25 MG/KG 1/2 D ADMINISTERED SIMULTANEOUSLY WITH 30 MG/KG SULPIRIDE BEGINNING 1 WK POST CARCINOGEN TREATMENT AND CONTI, Route [Inhibitor]: SUBCUTANEOUS, Strain/Sex: WISTAR/MALE, Target Tissue: Type of Lesion: STOMACH: ADENOCARCINOMA, Dose [Carcinogen]: 50 UG/ML IN DRINKING WATER FOR 25 WK, Promoter: NONE USED","13/18 (72%), 6/20 (30%), 58%, not calculated"
same,"tumour outcome (control, treated, inhibition, significance)","Carcinogen: N-METHYL-N'-NITRO-N-NITROSOGUANIDINE, 70-25-7, 25 MG/KG 1/2 D BEGINNING 1 WK POST CARCINOGEN TREATMENT AND CONTINUING FOR DURATION OF STUDY (STUDY DURATION: 52 WK), Route [Inhibitor]: SUBCUTANEOUS, Strain/Sex: WISTAR/MALE, Target Tissue: Type of Lesion: STOMACH: ADENOCARCINOMA, Dose [Carcinogen]: 50 UG/ML IN DRINKING WATER FOR 25 WK, Promoter: NONE USED","13/18 (72%), 6/20 (30%), 58%, p<0.05"
same,"tumour outcome (control, treated, inhibition, significance)","Carcinogen: N-METHYL-N'-NITRO-N-NITROSOGUANIDINE, 70-25-7, 25 MG/KG IN 0.9% SALINE 1/2 D BEGINNING 1 WK POST LAST CARCINOGEN DOSE AND CONTINUING FOR DURATION OF STUDY (STUDY DU, Route [Inhibitor]: SUBCUTANEOUS, Strain/Sex: WISTAR/MALE, Target Tissue: Type of Lesion: STOMACH: ADENOCARCINOMA, Dose [Carcinogen]: 100 UG/ML IN DRINKING WATER FOR 25 WK, Promoter: NONE USED","16/20 (80%), 10/22 (45%), 44%, p<0.05"
